According to patent US11078152B2, “Method for resolution of baclofen salts” (Universite de Rouen, priority 2016, dated 2021):

What was measured:
[1] = background statement, no test described; cited from earlier work
[2] = Determination of the solubility of the racemic Bahma salt in a given solvent at a given temperature; format: physicochemical; settings: for Solubility 1M HCl: aqueous 1M HCl solution; for Solubility 2M HCl: aqueous 2M HCl solution; for Solubility: n-propanol/water azeotropic mixture; for Solubility Water: pure water
Protocol: Determination of the Solubility
The solubility of a Bahma salt in a given solvent was calculated, for a given temperature and in a given volume of solvent, via the following formula:
[formula] in which mBahma is the mass of the Bahma salt introduced in grams to reach saturation; ρsolvent is the density of the solvent in g.mL^−1; and Vsolvent is the volume of the solvent in mL.
The solubility of the racemic Bahma salt at various temperatures was determined in the n-propanol/water azeotropic mixture (ρ=0.870 g.mL^−1).
The solubility of the racemic Bahma salt at various temperatures was determined in pure water (ρ=1 g.mL^−1), in aqueous 1M HCl solution (ρ=1.017 g.mL^−1) and in aqueous 2M HCl solution (ρ=1.030 g.mL^−1).

Row | SMILES | activity relative to the S(+) enantiomer [1] | Solubility 1M HCl ([2]; 20° C.) [%] | Solubility 1M HCl ([2]; 35° C.) [%] | Solubility 1M HCl ([2]; 50° C.) [%] | Solubility 2M HCl ([2]; 20° C.) [%] | Solubility 2M HCl ([2]; 35° C.) [%] | Solubility 2M HCl ([2]; 50° C.) [%] | Solubility ([2]; 20° C.) [%] | Solubility ([2]; 35° C.) [%] | Solubility ([2]; 50° C.) [%] | Solubility Water ([2]; 20° C.) [%] | Solubility Water ([2]; 35° C.) [%] | Solubility Water ([2]; 50° C.) [%]
1 | NC[C@H](CC(=O)O)c1ccc(Cl)cc1 [R(−) enantiomer, (R)-4-amino-3-(4-chlorophenyl)butanoic acid] | three times more active than the S(+) enantiomer | – | – | – | – | – | – | – | – | – | – | – | –
2 | NCC(CC(=O)O)c1ccc(Cl)cc1.O=C(O)C=CC(=O)O (racemic) [racemic Bahma salt, baclofen hydrogen maleate] | – | 4.51 | 6.86 | 12.54 | 6.48 | 11.44 | 22.24 | 1.49 | 2.80 | 4.81 | 0.75 | 1.00 | 1.78
